The record followed here is patent US6897237B2, “MMP-12 inhibitors” (Shionogi & Co. Ltd., priority 2000, dated 2005).

As a reminder, the IC50 is the concentration at which inhibition is half-maximal. Read a high IC50 as weaker potency.

Common to all, as to assay type: biochemical
Common to all, as to conditions: substrate MOCAc-Pro-Leu-Gly-Leu-A2Pr(DNP)-Ala-Arg-NH2

Assay [1] concerns the target T1, MMP-8 catalytic domain (Homo sapiens, UniProt P22894).
T1 construct: catalytic domain (^99Phe˜^262Gly); His-tag; enterokinase digestion-site; made in house; host or cells: Escherichia coli
The experiment in a line: Assay for inhibitory activities on MMPs (fluorogenic peptide substrate): MMP-8. The source says: In regard to MMP-8, catalytic domain (^99Phe˜^262Gly) was amplified with PCR using commercial available Human Bone Marrow cDNA. This was cloned in Escherichia. coli expression vector pTrc99AHE inserted with His-tag sequence and enterokinase digestion-site, induced and expressed by IPTG (Isopropyl-β-D-thiogalactopyranoside) and expressed in a insoluble fraction (Than F. Ho, M. Walid Qoronfleh, Robert C. Wahl, Trica A. Pulvino, Karen J. Vavra, Joe Falvo, Tracey M. Banks, Patricia G. Brake and Richard B. Ciccarelli: Gene expression, purification and characterization of recombinant human neutrophil collagenase. Gene 146, (1994) 297-301, Prepared by the a improved method of this material). Isolation of MMP-8 from insoluble fraction was carried out by dissolving in modifier (6M urea) by a usual method and purification with metal chelate chromatography. And then removing modifier (6M urea) with dialysis and refolding of the enzyme spontaneously gave activated MMP-8.
(§1) The enzymatic activity on MMPs was analyzed by the method described in “C. Graham Knight, Frances Willenbrock and Gillian Murphy: A novel coumarin-labelled peptide for sensitive continuous assays of the matrix metalloproteinases: FEBS LETT., 296, (1992), 263-266”. The substrate: MOCAc-Pro-Leu-Gly-Leu-A2Pr(DNP)-Ala-Arg-NH2 was purchased from Peptide Institute, Inc., Osaka, Japan. The measurement of the inhibitory activities (IC50) was carried out by the following four methods;
(§2) (A) Reaction with substrate, enzyme (MMPs) and inhibitor
(§3) (B) Reaction with substrate and inhibitor, without enzyme
(§4) (C) Reaction with substrate and enzyme (MMPs), without inhibitor
(§5) (D) Reaction with substrate only
(§6) IC50 values were calculated by using the following formula and each fluorescence values of above four methods (A to D).
(§7) % inhibition={1−(A−B)/(C−D)}×100
(§8) IC50 means the concentration required to inhibit 50% of the enzyme activity.

The target in assay [2] is T2, MMP-1 (Homo sapiens, UniProt P03956).
T2 construct: purchased Yagai
T2 sequence (P03956 100-469): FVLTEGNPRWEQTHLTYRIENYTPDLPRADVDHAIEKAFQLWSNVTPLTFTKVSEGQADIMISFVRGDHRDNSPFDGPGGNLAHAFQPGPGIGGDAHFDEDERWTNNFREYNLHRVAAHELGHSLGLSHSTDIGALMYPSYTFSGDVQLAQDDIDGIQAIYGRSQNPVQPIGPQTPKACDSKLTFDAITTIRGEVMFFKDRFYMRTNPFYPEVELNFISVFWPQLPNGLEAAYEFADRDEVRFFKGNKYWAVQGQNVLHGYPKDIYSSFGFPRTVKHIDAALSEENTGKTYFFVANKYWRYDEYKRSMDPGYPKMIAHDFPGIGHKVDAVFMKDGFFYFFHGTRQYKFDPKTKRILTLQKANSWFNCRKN
The experiment in a line: Assay for inhibitory activities on MMPs (fluorogenic peptide substrate): MMP-1. As for the experimental part:
MMP-1 was purchased from Yagai.
as §1, §2, §3, §4, §5, §6, §7, §8

Assay [3] addresses T3, MMP-12 catalytic domain (Homo sapiens, UniProt P39900).
T3 construct: catalytic domain(^100Phe˜^263Gly); His-tag; enterokinase digestion-site; made in house; host or cells: Escherichia coli
The experiment in a line: Assay for inhibitory activities on MMPs (fluorogenic peptide substrate): MMP-12. As for the experimental part: In regard to MMP-12, catalytic domain(^100Phe˜^263Gly) was amplified with RT-PCR from Human Placenta Total RNA. This was cloned in Escherichia coli expression vector pTrc99AHE inserted with His-tag sequence and enterokinase digestion-site, induced and expressed by IPTG (Isopropyl-β-D-thiogalactopyranoside) and expressed in a insoluble fraction. Isolation of MMP-12 from a insoluble fraction was carried out by dissolving in modifier (6M urea) by a usual method and purification with metal chelate chromatography (Ni Chelateing Sepharose). And then removing modifier (6M urea) with dialysis and refolding of the enzyme spontaneously gave activated MMP-12.
as §1, §2, §3, §4, §5, §6, §7, §8

T1 sequence (P22894 99-262): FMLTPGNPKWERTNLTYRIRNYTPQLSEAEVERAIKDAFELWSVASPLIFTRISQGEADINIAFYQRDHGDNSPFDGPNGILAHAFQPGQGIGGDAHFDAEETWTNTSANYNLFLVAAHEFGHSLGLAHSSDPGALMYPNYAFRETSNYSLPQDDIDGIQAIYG
T3 sequence (P39900 100-263): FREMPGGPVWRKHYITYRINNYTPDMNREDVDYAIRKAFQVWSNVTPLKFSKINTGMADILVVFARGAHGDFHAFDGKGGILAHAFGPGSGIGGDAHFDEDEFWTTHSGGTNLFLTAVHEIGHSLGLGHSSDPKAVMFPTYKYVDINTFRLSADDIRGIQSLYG

In the case of `C[C@@H](NS(=O)(=O)c1ccc(C#Cc2ccc3ccccc3c2)s1)C(=O)O` [Compound B-6], the IC50 is 2090 nM in assay [1], more than 10000 nM in assay [2] and 23 nM in assay [3].
